Results: PMC11249646, “Small-Molecule Disruptors of the Interaction between Calcium- and Integrin-Binding Protein 1 and Integrin αIIbβ3 as Novel Antiplatelet Agents” (ACS Pharmacology & Translational Science, 2024)

molecular target: T1, CIB1 and αIIb interaction (CIB1-GST : F-αIIb peptide) (Homo sapiens, UniProt Q99828); assay: FP assay, 1536-well qHTS format (primary and confirmatory screen); assay type: binding; conditions: confirmatory screen
T1 construct: made in house; host or cells: BL-21 plus RIL cells (E. coli)
T1 sequence (Q99828 1-191): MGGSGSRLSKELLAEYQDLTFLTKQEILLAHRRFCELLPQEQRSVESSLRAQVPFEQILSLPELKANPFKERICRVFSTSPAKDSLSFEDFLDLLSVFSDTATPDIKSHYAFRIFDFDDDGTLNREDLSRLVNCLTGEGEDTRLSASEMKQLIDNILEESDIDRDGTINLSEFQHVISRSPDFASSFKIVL

| Structure (SMILES) | CONFIRMATORY SCREEN Efficacy (%) | Efficacy (%) (confirmatory screen) |
| --- | --- | --- |
| O=C(Nc1nc(-c2ccccc2)cs1)c1ccncc1NS(=O)(=O)c1cccs1.O=C(O)C(F)(F)F [NCGC00345032-01] |  | -85 |
| CN(C)CCN1C(=O)c2cccc3cc(N)cc(c23)C1=O [NCGC00346513-01] | -50 |  |
| C=C1C(=O)[C@@]23C(CC[C@@H]1[C@H]2O)[C@@]12CO[C@]3(O)[C@@H](O)[C@@H]1C(C)(C)CC[C@@H]2O (some centres unmarked) [NCGC00346595-02] |  | -89 |

Continued, in another order:

| CONFIRMATORY SCREEN Efficacy (%) | Structure (SMILES) | Efficacy (%) (confirmatory screen) |
| --- | --- | --- |
| -26 | Cc1nc(C(=O)NCC(=O)O)c(O)c2ccc(Oc3ccccc3)cc12 [NCGC00346527-01] |  |
| -28 | O=C(O)CCNc1cc(N2CCc3ccccc3CC2)nc(-c2ccccn2)n1 [NCGC00347943-01] |  |

same assay, conditions: confirmatory screen, YES/NO

| Structure (SMILES) | Confirm? (confirmatory screen) |
| --- | --- |
| O=C(Nc1nc(-c2ccccc2)cs1)c1ccncc1NS(=O)(=O)c1cccs1.O=C(O)C(F)(F)F [NCGC00345032-01] | YES |
| C=C1C(=O)[C@@]23C(CC[C@@H]1[C@H]2O)[C@@]12CO[C@]3(O)[C@@H](O)[C@@H]1C(C)(C)CC[C@@H]2O (some centres unmarked) [NCGC00346595-02] | YES |

same assay, conditions: confirmatory screen, qHTS curve class

| CONFIRMATORY SCREEN Curve Class | Structure (SMILES) |
| --- | --- |
| 4 | Cc1nc(C(=O)NCC(=O)O)c(O)c2ccc(Oc3ccccc3)cc12 [NCGC00346527-01] |
| 4 | O=C(O)CCNc1cc(N2CCc3ccccc3CC2)nc(-c2ccccn2)n1 [NCGC00347943-01] |

| Structure (SMILES) | CONFIRMATORY SCREEN Curve Class |
| --- | --- |
| CN(C)CCN1C(=O)c2cccc3cc(N)cc(c23)C1=O [NCGC00346513-01] | 4 |

same assay, conditions: confirmatory screen, qHTS curve class; negative sign = inhibitory curve

| Structure (SMILES) | Curve Class (confirmatory screen) |
| --- | --- |
| O=C(Nc1nc(-c2ccccc2)cs1)c1ccncc1NS(=O)(=O)c1cccs1.O=C(O)C(F)(F)F [NCGC00345032-01] | -1.2 |
| C=C1C(=O)[C@@]23C(CC[C@@H]1[C@H]2O)[C@@]12CO[C@]3(O)[C@@H](O)[C@@H]1C(C)(C)CC[C@@H]2O (some centres unmarked) [NCGC00346595-02] | -1.1 |

same assay, conditions: confirmatory screen; read-out: IC50 [μM] (confirmatory screen)

| Structure (SMILES) | IC50 [µM] |
| --- | --- |
| O=C(Nc1nc(-c2ccccc2)cs1)c1ccncc1NS(=O)(=O)c1cccs1.O=C(O)C(F)(F)F [NCGC00345032-01] | 25.1 |
| C=C1C(=O)[C@@]23C(CC[C@@H]1[C@H]2O)[C@@]12CO[C@]3(O)[C@@H](O)[C@@H]1C(C)(C)CC[C@@H]2O (some centres unmarked) [NCGC00346595-02] | 25.1 |

same assay, conditions: qHTS primary screen hits, Table S2; negative = inhibition

| Structure (SMILES) | Efficacy (%) |
| --- | --- |
| O=C(Nc1nc(-c2ccccc2)cs1)c1ccncc1NS(=O)(=O)c1cccs1.O=C(O)C(F)(F)F [NCGC00345032-01] | -59 |
| CN(C)CCN1C(=O)c2cccc3cc(N)cc(c23)C1=O [NCGC00346513-01] | -32 |
| Cc1nc(C(=O)NCC(=O)O)c(O)c2ccc(Oc3ccccc3)cc12 [NCGC00346527-01] | -24 |

same assay, conditions: qHTS primary screen hits, Table S2; negative sign = inhibitory curve

| Curve Class | Structure (SMILES) |
| --- | --- |
| -2.4 | Cc1nc(C(=O)NCC(=O)O)c(O)c2ccc(Oc3ccccc3)cc12 [NCGC00346527-01] |

same assay, conditions: qHTS primary screen hits, Table S2; negative sign = inhibitory curve; several classes where COUNT > 1

| Structure (SMILES) | Curve Class |
| --- | --- |
| O=C(Nc1nc(-c2ccccc2)cs1)c1ccncc1NS(=O)(=O)c1cccs1.O=C(O)C(F)(F)F [NCGC00345032-01] | -2.2 |
| CN(C)CCN1C(=O)c2cccc3cc(N)cc(c23)C1=O [NCGC00346513-01] | -1.2 |

same assay, conditions: qHTS primary screen hits, Table S2; read-out: IC50

| Structure (SMILES) | IC50 [µM] |
| --- | --- |
| CN(C)CCN1C(=O)c2cccc3cc(N)cc(c23)C1=O [NCGC00346513-01] | 1.1 |
| Cc1nc(C(=O)NCC(=O)O)c(O)c2ccc(Oc3ccccc3)cc12 [NCGC00346527-01] | 38.5 |

molecular target: T2, GST-CIB1 : F-scrambled peptide (Homo sapiens, UniProt Q99828); assay: FP scrambled-peptide counter screen, 1536-well format; assay type: binding; conditions: counterscreen
T2 construct: made in house; host or cells: BL-21 plus RIL cells (E. coli)
T2 sequence (Q99828 1-191): T1 sequence (Q99828 1-191)

| Structure (SMILES) | COUNTERSCREEN Efficacy (%) | Efficacy (%) (counterscreen) |
| --- | --- | --- |
| O=C(Nc1nc(-c2ccccc2)cs1)c1ccncc1NS(=O)(=O)c1cccs1.O=C(O)C(F)(F)F [NCGC00345032-01] |  | -52 |
| CN(C)CCN1C(=O)c2cccc3cc(N)cc(c23)C1=O [NCGC00346513-01] | -24 |  |
| C=C1C(=O)[C@@]23C(CC[C@@H]1[C@H]2O)[C@@]12CO[C@]3(O)[C@@H](O)[C@@H]1C(C)(C)CC[C@@H]2O (some centres unmarked) [NCGC00346595-02] |  | -60 |

Now from value to compound, other results behind:

| COUNTERSCREEN Efficacy (%) | Structure (SMILES) | Efficacy (%) (counterscreen) |
| --- | --- | --- |
| 0 | Cc1nc(C(=O)NCC(=O)O)c(O)c2ccc(Oc3ccccc3)cc12 [NCGC00346527-01] |  |
| -35 | O=C(O)CCNc1cc(N2CCc3ccccc3CC2)nc(-c2ccccn2)n1 [NCGC00347943-01] |  |

same assay, conditions: counterscreen, YES/NO

| Structure (SMILES) | Confirm? (counterscreen) |
| --- | --- |
| O=C(Nc1nc(-c2ccccc2)cs1)c1ccncc1NS(=O)(=O)c1cccs1.O=C(O)C(F)(F)F [NCGC00345032-01] | YES |

same assay, conditions: counterscreen, qHTS curve class

| COUNTERSCREEN Curve Class | Structure (SMILES) |
| --- | --- |
| 4 | Cc1nc(C(=O)NCC(=O)O)c(O)c2ccc(Oc3ccccc3)cc12 [NCGC00346527-01] |
| 4 | O=C(O)CCNc1cc(N2CCc3ccccc3CC2)nc(-c2ccccn2)n1 [NCGC00347943-01] |

| Structure (SMILES) | COUNTERSCREEN Curve Class |
| --- | --- |
| CN(C)CCN1C(=O)c2cccc3cc(N)cc(c23)C1=O [NCGC00346513-01] | 4 |

same assay, conditions: counterscreen, qHTS curve class; negative sign = inhibitory curve

| Structure (SMILES) | Curve Class (counterscreen) |
| --- | --- |
| O=C(Nc1nc(-c2ccccc2)cs1)c1ccncc1NS(=O)(=O)c1cccs1.O=C(O)C(F)(F)F [NCGC00345032-01] | -2.2 |
| C=C1C(=O)[C@@]23C(CC[C@@H]1[C@H]2O)[C@@]12CO[C@]3(O)[C@@H](O)[C@@H]1C(C)(C)CC[C@@H]2O (some centres unmarked) [NCGC00346595-02] | -1.2 |

same assay, conditions: counterscreen; read-out: IC50 [μM] (counterscreen)

| Structure (SMILES) | IC50 [µM] |
| --- | --- |
| O=C(Nc1nc(-c2ccccc2)cs1)c1ccncc1NS(=O)(=O)c1cccs1.O=C(O)C(F)(F)F [NCGC00345032-01] | 79.4 |
| C=C1C(=O)[C@@]23C(CC[C@@H]1[C@H]2O)[C@@]12CO[C@]3(O)[C@@H](O)[C@@H]1C(C)(C)CC[C@@H]2O (some centres unmarked) [NCGC00346595-02] | 15.8 |
